The source of these data is publication PMC1950744, “Transcription Termination Defective Mutants of Rho: Role of Different Functions of Rho in Releasing RNA from the Elongation Complex” (Journal of Molecular Biology, 2007).

Series [1] concerns the target T1, Rho (Escherichia coli, UniProt P0AG30, I382N).
T1 construct: full-length WT rho in pET21b (pRS96; NdeI/XhoI), C-terminal His-tag kept, expressed in E. coli BL21(DE3) (I382N in BL21SI), Ni-NTA and heparin-Sepharose; homo-hexamer; 419 residues natural length
The series can be described thus: UV cross-linking of [γ-32P]ATP, SDS-PAGE, hyperbolic fit. Format: binding. The conditions noted are these: read-out: Kd, app. From the text:
(§1) UV cross-linking of [γ-32P]ATP, SDS-PAGE, hyperbolic fit on Rho

The target of series [2] is T2, Rho (Escherichia coli, UniProt P0AG30, Y274D).
T2 construct: full-length WT rho in pET21b (pRS96; NdeI/XhoI), C-terminal His-tag kept, expressed in E. coli BL21(DE3) (I382N in BL21SI), Ni-NTA and heparin-Sepharose; homo-hexamer; 419 residues natural length
T2 sequence (P0AG30 whole entry Y274D): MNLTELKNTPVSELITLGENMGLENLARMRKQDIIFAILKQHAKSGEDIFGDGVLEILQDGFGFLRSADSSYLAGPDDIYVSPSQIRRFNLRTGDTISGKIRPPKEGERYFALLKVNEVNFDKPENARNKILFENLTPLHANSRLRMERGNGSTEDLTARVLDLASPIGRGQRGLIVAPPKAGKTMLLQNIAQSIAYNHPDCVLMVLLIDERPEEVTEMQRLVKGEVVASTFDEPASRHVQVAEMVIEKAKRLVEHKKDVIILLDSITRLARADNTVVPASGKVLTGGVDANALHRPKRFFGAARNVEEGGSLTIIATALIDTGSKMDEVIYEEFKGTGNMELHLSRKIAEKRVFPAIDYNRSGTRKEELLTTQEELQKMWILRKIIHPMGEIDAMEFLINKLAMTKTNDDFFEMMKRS
The series is described as above. Format: binding. As to conditions: read-out: Kd, app.
Text: as §1

Series [3] addresses T3, Rho (Escherichia coli, UniProt P0AG30, G324D).
T3 construct: full-length WT rho in pET21b (pRS96; NdeI/XhoI), C-terminal His-tag kept, expressed in E. coli BL21(DE3) (I382N in BL21SI), Ni-NTA and heparin-Sepharose; homo-hexamer; 419 residues natural length
The series is described as above. The series is classed as binding. The conditions noted are these: read-out: Kd, app.
Text: as §1

In series [4] the target is T4, Rho (Escherichia coli, UniProt P0AG30, P279S).
T4 construct: full-length WT rho in pET21b (pRS96; NdeI/XhoI), C-terminal His-tag kept, expressed in E. coli BL21(DE3) (I382N in BL21SI), Ni-NTA and heparin-Sepharose; homo-hexamer; 419 residues natural length
T4 sequence (P0AG30 whole entry P279S): as the sequence (P0AG30 whole entry Y274D) above, with D274Y, P279S counted along it
The series is described as above. The series is classed as binding. As to conditions: read-out: Kd, app.
Text: as §1

Series [5] deals with T5, Rho (Escherichia coli, UniProt P0AG30, N340S).
T5 construct: full-length WT rho in pET21b (pRS96; NdeI/XhoI), C-terminal His-tag kept, expressed in E. coli BL21(DE3) (I382N in BL21SI), Ni-NTA and heparin-Sepharose; homo-hexamer; 419 residues natural length
T5 sequence (P0AG30 whole entry N340S): as the sequence (P0AG30 whole entry Y274D) above, with D274Y, N340S counted along it
The description is as above. Format: binding. As to conditions: read-out: Kd, app.
Text: as §1

The target in series [6] is T6, Rho (Escherichia coli, UniProt P0AG30, G51V).
T6 construct: full-length WT rho in pET21b (pRS96; NdeI/XhoI), C-terminal His-tag kept, expressed in E. coli BL21(DE3) (I382N in BL21SI), Ni-NTA and heparin-Sepharose; homo-hexamer; 419 residues natural length
T6 sequence (P0AG30 whole entry G51V): as the sequence (P0AG30 whole entry Y274D) above, with G51V, D274Y counted along it
Described as above. The series is classed as binding. The conditions noted are these: read-out: Kd, app.
Text: as §1

Series [7] deals with T7, Nc1ncnc2c1ncn2[C@@H]1O[C@H](COP(=O)(O)OP(=O)(O)OP(=O)(O)O)[C@@H](O)[C@H]1O.
T7 construct: full-length WT rho in pET21b (pRS96; NdeI/XhoI), C-terminal His-tag kept, expressed in E. coli BL21(DE3) (I382N in BL21SI), Ni-NTA and heparin-Sepharose; homo-hexamer; 419 residues natural length
As to the kind of experiment: ATPase assay, Pi release by TLC, Lineweaver-Burk. The series is classed as biochemical, Escherichia coli. As to conditions: poly(C) 10 μM as cofactor, 5 nM Rho, 25 mM Tris-HCl pH 8.0, 50 mM KCl, 5 mM MgCl2, 1 mM DTT, 0.1 mg/ml BSA, 30 °C. From the text:
ATPase assay, Pi release by TLC, Lineweaver-Burk on Rho

One may read the Km as the concentration of substrate that gives half-maximal velocity.

T1 sequence (P0AG30 whole entry I382N): as the sequence (P0AG30 whole entry Y274D) above, with D274Y, I382N counted along it
T3 sequence (P0AG30 whole entry G324D): as the sequence (P0AG30 whole entry Y274D) above, with D274Y, G324D counted along it

With `Nc1ncnc2c1ncn2[C@@H]1O[C@H](COP(=O)(O)OP(=O)(O)OP(=O)(O)O)[C@@H](O)[C@H]1O` [ATP], the Kd amounted to 600 ± 100 nM at Rho [1]; 3150 ± 260 nM on Rho [2]; 2450 ± 150 nM on Rho [3]; 4280 ± 540 nM at Rho [4]; 1090 ± 120 nM on Rho [5]; 1350 ± 260 nM at Rho [6].

Regarding Rho (Escherichia coli K-12; Y80C), the Km in series [7] worked out at 43.2 ± 0.8 µM.
